Measured values reported in patent US20210379078A1, “Killing Senescent Cells And Treating Senescence-Associated Conditions Using A Bcl Inhibitor And An Mcl-1 Inhibitor” (Unity Biotechnology, Inc., priority 2018, published 2021).
Blank lines part the entries; values can stand above or below the compound they belong to.

Experiments:
BIM-Bcl-xL interactions = target: T1, BIM-Bcl-xL interactions (Mus musculus, UniProt Q64373); test: Target engagement co-immunoprecipitation with anti-BIM, western blot for Bcl-xL; type: cell-based
T1 construct: Lysates for co-IP experiments were prepared from: (a) lungs from mice; endogenous in cells; host or cells: mouse lung tissue (oral aspiration dosing) and mouse bronchiotracheal epithelial (MBE) cells
Procedure: Immunoprecipitations were performed using rabbit monoclonal anti-BIM (C34C5) antibodies (Cell Signaling Technology®) bound by Protein A-coated magnetic beads (Life Technologies®). 100 ul lysate was incubated with 10 μL of magnetic beads (pre-coated with 2 μg of antibody) for 1 hour at 4° C. in a Thermal Mixer at 1300 rpm (VWR®). After immunocapture, samples were washed three times with cold lysis buffer and eluted from the beads using non-reducing NuPAGE LDS Sample Buffer® (Life Technologies®). […]

Mcl-1 binding to BIM = test: Target engagement co-immunoprecipitation with anti-BIM, western blot for Mcl-1; type: cell-based; details: OA-dosed mouse lungs (8 hours) and MBE cells (4 hours)
Source text: A target engagement assay was developed to determine Bcl-xL and Mcl-1's respective interaction with BIM both in vivo in mice, or cells in culture, in order to predict senolysis. The respective binding pockets of Bcl-xL and Mcl-1 proteins under normal conditions sequestrate pro-apoptotic proteins, such as BIM. Co-immunoprecipitation (co-IP) was employed to study protein-protein interactions in order to determine if candidate senolytics can effectively displace Bcl-xL or Mcl-1 from BIM protein.
Lysates for co-IP experiments were prepared from: (a) lungs from mice that had been dosed for 8 hours by oral aspiration (OA) with either a candidate senolytic Bcl (Compound 1) or Mcl-1 inhibitor (S-63845), or a control vehicle treatment; or (b) mouse bronchiotrachael epithelial (MBE) cells, dosed for 4 hours with the same Bcl or Mcl-1 inhibitor, using a non-denaturing lysis buffer: PBS pH 7.4, 2% CHAPS, supplemented with a protease inhibitor cocktail (Roche®)). For every 0.25 gram of tissue 1 mL of lysis buffer was added to the sample, and next tissue was homogenized using a Precellys 24 (Bertin Technologies®; 3 cycles of 20 s and 20 s pause). Homogenates were cleared by centrifugation at 13000 g at 4° C. for 10 min, and the supernatant lysate was transferred to new tubes, aliquoted, flash-frozen using liquid nitrogen, and stored at −80° C. […]

[1] = cited from earlier work

T1 sequence (Q64373 whole entry): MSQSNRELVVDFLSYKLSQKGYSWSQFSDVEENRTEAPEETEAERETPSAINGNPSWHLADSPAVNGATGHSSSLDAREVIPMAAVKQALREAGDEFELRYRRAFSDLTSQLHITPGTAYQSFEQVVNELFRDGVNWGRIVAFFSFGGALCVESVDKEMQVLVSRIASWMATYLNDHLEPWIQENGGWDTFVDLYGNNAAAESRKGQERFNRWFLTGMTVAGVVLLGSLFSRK

Compound: Cc1c(-c2c(-c3ccc(F)o3)sc3ncnc(O[C@H](Cc4ccccc4OCc4ccnn4CC(F)(F)F)C(=O)O)c23)ccc(OCCN2CCN(C)CC2)c1Cl [Compound S-63845]
Bcl-xL binding to BIM when Mcl-1 is inhibited (co-IP) (BIM-Bcl-xL interactions; S-63845 at 1 uM and 10 uM): Bcl-xL appeared to compensate for BIM binding

BIM-Bcl-xL interactions (co-IP) (BIM-Bcl-xL interactions; OA-dosed mouse lungs (8 hours) and MBE cells (4 hours)): blocked
Compound: Cc1c(C(=O)O)c(-c2cccc(N3CCN(c4ccc(NS(=O)(=O)c5ccc(N[C@H](CCN6CCC(OP(=O)(O)O)CC6)CSc6ccccc6)c(S(=O)(=O)C(F)(F)F)c5)cc4)CC3)c2)c(-c2ccc(Cl)cc2)n1C(C)C [Compound 1]
Mcl-1 binding to BIM (co-IP) (Mcl-1 binding to BIM): compensatory Mcl-1 binding to BIM was observed

Compound: CN(C)CC[C@H](CSc1ccccc1)Nc1ccc(S(=O)(=O)NC(=O)c2ccc(N3CCN(Cc4ccccc4-c4ccc(Cl)cc4)CC3)cc2)cc1[N+](=O)[O-] [ABT-737]
dose-limiting toxicity in human patients [1]: dose-limiting thrombocytopenia
